Results: US20200207734A1, “HETEROCYCLIC COMPOUND AND USE THEREOF” (Takeda Pharmaceutical Company Limited, priority 2017, published 2020)

Assays:
cynomolgus monkeys = assay: Evaluation of wake-promoting effects in cynomolgus monkeys (EEG/EMG/EOG); assay type: in vivo; conditions: for response vs control in vivo at 1 mg/kg: Macaca fascicularis, sc, 4 h, s.c., cynomolgus monkeys, administered at ZT12, read-out: Wakefulness time (% of vehicle treatment) (Mean, n = 1-2); for Wakefulness time (% of vehicle treatment): 10 mg/kg, p.o., at ZT12, 4 h after administration, male cynomolgus monkeys, Mean, n = 4-8, cross-over design
Procedure: The wake-promoting effects were evaluated by measuring the electroencephalogram (EEG), electromyogram (EMG) and electrooculogram (EOG) in cynomolgus monkeys. Under isoflurane anesthesia (1-5%, Pfizer Japan Inc., Tokyo, Japan), male cynomolgus monkeys (3-5 years old, Hamri Co., Ltd., Ibaraki, Japan) were surgically implanted with radio-telemetry transmitters (TL10M3-D70-EEE, Data Sciences International Inc., MN, USA). EEG leads were stereotaxically positioned at the parietal area and secured to the cranium with stainless-steel screws in contact with the dura. […] Bilateral EMG leads were implanted into the back cervical muscles. After the surgery, each monkey was given penicillin (100,000 units/head, i.m., Meiji Seika Pharma Co., Ltd., Tokyo, Japan), buprenorphine (0.02 mg/kg, i.m., Otsuka Pharmaceutical Co., Ltd., Tokyo, Japan) and prednisolone (1 mg/kg, s.c., Kyoritsu Seiyaku Co., Ltd., Tokyo, Japan) daily for one week. After at least a 1-month recovery period in home cages, the monkeys were habituated to the recording chamber (an acrylic cage 60W×55D×75H (cm)) located in a soundproof, electrically shielded room. After we confirmed that monkeys slept sufficiently in the experimental room, cortical EEG, EMG and EOG signals were recorded using Dataquest ART software (Data Sciences International Inc., MN, USA). The signals were semi automatically scored in 20 sec epochs by a sleep scoring system (SleepSign, Kissei Comtec Co., Ltd., Nagano, Japan). This preliminary scoring was visually inspected and corrected if necessary. Test compound (10 mg/kg, Table 4-1) suspended in 0.5% methylcellulose aqueous solution, or vehicle (i.e., 0.5% methylcellulose aqueous solution) was administered orally (p.o.) to monkeys at zeitgeber time 12 (ZT12) in a volume of 5 mL/kg body weight in a cross-over design. EEG, EMG and EOG recordings were performed for 4 h after the compound administration/treatments. The time spent in wakefulness for 4 h after administration (% of vehicle treatment) was calculated by using SleepSign. Test compound (1 mg/kg, Table 4-2) dissolved in a mixed solution comprising 5% DMSO, 5% Cremophor EL, 20% PEG400 and 70% soluplus (1% (w/v)), or vehicle (i.e., a mixed solution comprising 5% DMSO, 5% Cremophor EL, 20% PEG400 and 70% soluplus (1% (w/v))) was administered subcutaneously (s.c.) to monkeys at ZT12 in a volume of 0.5 mL/kg body weight in a pre-post design. EEG, EMG and EOG recordings were performed for 4 h after the compound administration/treatments. The time spent in wakefulness for 4 h after administration (% of vehicle treatment) was calculated by using SleepSign.

[1] = Evaluation of microsome stability in human; assay type: in vitro ADME; conditions: human liver microsomes 0.2 mg/mL, 1 μmol/L test compound, pH 7.4, NADPH-generating system, 15 and 30 min; read-out: Clearance (in vitro intrinsic metabolic clearance)
Procedure: Human liver microsomes were purchased from Xenotech, LLC (Lenexa, Kans.). An incubation mixture consisted of microsomes in 50 mmol/L KH2PO4—K2HPO4 phosphate buffer (pH 7.4) and 1 μmol/L test compound. The concentration of microsomal protein was 0.2 mg/mL. An NADPH-generating system (5 mmol/L MgCl2, 5 mmol/L glucose-6-phosphate, 0.5 mmol/L beta-NADP+ and 1.5 unit/mL glucose-6-phosphate dehydrogenase) was added to the incubation mixture with a half volume of the reaction mixture to initiate the enzyme reaction. The reaction was terminated 15 and 30 minutes after the initiation of the reaction by mixing the reaction mixture with acetonitrile, followed by centrifugation at 2500 rpm for 10 min. The supernatant was subjected to LC/MS/MS analysis. The metabolic velocity was calculated as the slope of the concentration-time plot. The in vitro intrinsic metabolic clearance was calculated by dividing initial metabolic velocity by the test compound concentration in the incubation mixture.

[2] = target: T1, human orexin type 2 receptor (Homo sapiens, UniProt O43614); assay: Measurement of orexin type 2 receptor agonist activity (calcium fluorescence, CHO cells expressing hOX2R); assay type: cell-based; conditions: test compound 3 μM; CHO cells expressing human OX2 receptor; DMSO = 0%, orexin A (human) = 100%
T1 construct: human orexin type 2 receptor cDNA was inserted into pcDNA3.1(+) plasmid vector (Invitrogen); expressed in transfected cells
T1 sequence (O43614 1-444): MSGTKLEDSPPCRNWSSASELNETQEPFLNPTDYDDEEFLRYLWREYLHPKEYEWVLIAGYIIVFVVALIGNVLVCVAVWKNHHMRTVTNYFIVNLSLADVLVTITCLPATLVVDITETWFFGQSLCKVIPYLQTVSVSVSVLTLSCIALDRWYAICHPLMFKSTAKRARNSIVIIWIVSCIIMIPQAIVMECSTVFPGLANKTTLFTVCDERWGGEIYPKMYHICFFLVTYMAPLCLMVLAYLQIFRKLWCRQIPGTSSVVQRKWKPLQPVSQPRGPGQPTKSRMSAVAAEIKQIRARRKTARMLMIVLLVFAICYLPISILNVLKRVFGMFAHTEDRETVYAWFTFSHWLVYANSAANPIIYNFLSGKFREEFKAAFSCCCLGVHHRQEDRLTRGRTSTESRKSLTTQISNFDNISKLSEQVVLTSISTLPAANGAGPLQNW
Summary of the method: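 CHO-dhfr cells stably expressing hOX2R, loaded with Fluo-4 AM in HBSS/20 mM HEPES/0.1% BSA with probenecid, then given test compound. Calcium fluorescence was read for about 2 min 40 sec. Activity (%) was scaled between DMSO (0%) and 10 nM final human orexin A (100%).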

| microsomal CLint at 1 μmol/L [1] | OX2R agonist activity (3 μM, %) [2] | SMILES | response vs control in vivo at 1 mg/kg (cynomolgus monkeys) | Wakefulness time (% of vehicle treatment) (cynomolgus monkeys) |
| --- | --- | --- | --- | --- |
| 78 µL/min/mg | 107% | CC(C)(O)C(=O)N1CC[C@H](NS(=O)(=O)C2(F)CC2)[C@@H]1Cc1cccc(-c2cccc(F)c2)c1F [Example 450, N-[(2S,3S)-2-[(2,3′-difluoro[1,1′-biphenyl]-3-yl)methyl]-1-(2-hydroxy-2-methylpropanoyl)pyrrolidin-3-yl]-1-fluorocyclopropane-1-sulfonamide] | 243% |  |
| 26 µL/min/mg | 110% | CCS(=O)(=O)N[C@H]1CCN(C(=O)C(C)(C)O)[C@H]1Cc1cccc(-c2cccc(F)c2)c1F [Example 482, N-((2S,3S)-2-((2,3′-difluorobi-phenyl-3-yl)methyl)-1-(2-hydroxy-2-methylpropanoyl)pyrrolidin-3-yl)ethanesulfonamide] |  | 280.82 % of vehicle treatment |
| 6 µL/min/mg | 103% | CC(C)(O)C(=O)N1CC[C@H](NS(C)(=O)=O)[C@@H]1Cc1cccc(-c2cc(F)cc(F)c2)c1F [Example 483, N-((2S,3S)-1-(2-hydroxy-2-methyl-propanoyl)-2-((2,3′,5′-trifluorobi-phenyl-3-yl)methyl)pyrrolidin-3-yl)methanesulfonamide] |  | 359.35 % of vehicle treatment |
| 23 µL/min/mg | 112% | CCS(=O)(=O)N[C@H]1CCN(C(=O)C(C)(C)O)[C@H]1Cc1cccc(-c2cc(F)cc(F)c2)c1F [Example 484, N-((2S,3S)-1-(2-hydroxy-2-methyl-propanoyl)-2-((2,3′,5′-trifluorobi-phenyl-3-yl)methyl)pyrrolidin-3-yl)ethanesulfonamide] |  | 492.32 % of vehicle treatment |
|  | 102% | CCS(=O)(=O)N[C@H]1CCN(C(=O)N(C)C)[C@H]1Cc1cccc(-c2cccc(F)c2)c1F [Example 486, (2S,3S)-2-((2,3′-difluorobiphenyl-3-yl)methyl)-3-((ethylsulfonyl)amino)-N,N-dimethylpyrrolidine-1-carboxa-mide] | 328% |  |
|  | 104% | CCS(=O)(=O)N[C@H]1CCN(C(=O)N(C)C)[C@H]1Cc1cccc(-c2cc(F)cc(F)c2)c1F [Example 487, (2S,3S)-3-((ethylsulfonyl)amino)-N,N-dimethyl-2-((2,3′,5′-trifluorobi-phenyl-3-yl)methyl)pyrrolidine-1-carboxamide] | 355% |  |
